Results from patent US20170342503A1, “XRN2 AS A DETERMINANT OF SENSITIVITY TO DNA DAMAGE” (The Board of Regents of the University of Texas System, priority 2016, published 2017).

Assays:
[1] = tested on: cells with transient siRNA-mediated loss of XRN2; experiment: Colony forming assay, PARP inhibition with transient siRNA-mediated loss of XRN2; assay type: cell-based; settings: FIG. 8C, p<0.05
Description: FIGS. 8A-C. XRN2 depletion sensitizes cells to genetic knockdown and chemical inhibition of PARP1. […] (FIG. 8B) Loss of XRN2 and PARP1 by transient siRNA knockdown together inhibits cellular growth and survival; black column—shSCR; white column—shXRN2.
shScr and shXRN2 cells were plated onto 60 mm tissue culture plates and allowed to grow for two days. […] Colonies with >50 normal appearing cells were counted and percent survival calculated and graphed with dose.

[2] = tested on: shXRN2 human fibroblast cells; experiment: Immunofluorescence of basal 53BP1 foci and R loops in shXRN2 versus shScr cells; assay type: cell-based
Description: FIGS. 24A-C. DSBs formed in XRN2 deficient cells are dependent on active transcription and R-loop formation. (FIGS. 24A-B) Levels of 53BP1 were monitored in shXRN2 and compared to shScr human fibroblast cells after exposure to mock-, a-amanitin-, or GFP- or RNaseH-transfection treatments by IF. (FIG. 24C) Levels of R loops or 53BP1 were monitored in mock- or a-amanitin-treated shXRN2 cells by IF.
To visualize 53BP1, XRN2, and γ-H2AX, cells were plated, grown to ˜70% confluency on glass coverslips and either mock- or IR-treated. Cells were then washed once with PBS, permeabilized and fixed in methanol/acetone (70/30, v/v). To visualize ATM pS 1981 and Mre11 cells were fixed in 3% paraformaldehyde/2% sucrose PBS solution for 10 min at room temperature (RT). Fixation was followed by permeabilization on ice with a 0.5% Triton X-100 buffer (0.5% Triton X-100, 20 mM HEPES, pH 7.4, 50 mM NaCl, 3 mM MgCl, and 300 mM sucrose). […] Visualization was performed using a 100× oil objective lens with fluorescence on a Nikon microscope. For each experiment 100 cells were counted.
To determine how transcription and R-loop formation contributed to the DNA damage observed in shXRN2 cells, the inventors treated shScr and shXRN2 cells with a-amanitin or transfected each cell line with GFP control or GFP-RNaseH expression plasmids to remove R-loops and measured the number of 53BP1 foci.

fibroblast cells = experiment: Immunofluorescence of XRN2 and R loop (S9.6) foci after UV treatment; assay type: cell-based, human; settings: UV (20 J/m^2) + a-amanitin; FIG. 17D
Text: FIGS. 10A-D. XRN2 is a DNA damage response (DDR) factor. (FIG. 10A) To interrogate potential in vivo XRN2-interacting partners, exponentially growing HeLa cells were collected and lysed for FPLC analyses. Individual fractions were separated by SDS-PAGE and western blot techniques used to probe for indicated proteins. (FIG. 10B) Interactions between XRN2 and the DNA damage regulators Ku80, 53BP1, and BRCA1 were interrogated by immunoprecipitation (IP). (FIG. 10C) Sub-cellular XRN2 localization was quantitated in shScr and […] cells in mock-, IR (1 Gy), and UV (20 J/m^2) fibroblast cells. (FIG. 10D) Sub-cellular XRN2 localization and S9.6 foci was visualized in mock-, UV (20 J/m^2)-, or UV (20 J/m^2)+a amanitin (a-aman)-treated shScr and shXRN2 fibroblast cells by IF. (*p<0.05).
FIGS. 17A-D. XRN2 undergoes transcription-dependent nuclear re-distribution in response to IR and UV. (FIGS. 17A-D) Sub-cellular localization of XRN2 was monitored in fibroblast cells either after (FIG. 17A) mock, (FIG. 17B) IR (1Gy), (FIG. 17C) UV (20 J/m^2), or (FIG. 17D) UV (20 J/m^2)+a-amanitin treated cells by IF.
To visualize 53BP1, XRN2, and γ-H2AX, cells were plated, grown to ˜70% confluency on glass coverslips and either mock- or IR-treated. […] Visualization was performed using a 100× oil objective lens with fluorescence on a Nikon microscope. For each experiment 100 cells were counted. […]

shXRN2 cells = experiment: Regression of 53BP1 foci/nucleus after IR exposure (DNA repair kinetics); assay type: cell-based; settings: IR (1 Gy); treatment prior to IR; FIGS. 15B-C
Text: FIGS. 15A-C. R loop formation and transcription contribute to delayed DSB repair kinetics in XRN2-deficient cells. (FIG. 15A) Levels of R loops were monitored in mock- or IR (1 Gy)-exposed shXRN2 compared to shScr MDA-MB-231 breast cancer cells by IF. (FIGS. 15B-C) Regression of 53BP1 foci/nucleus was monitored in mock- or IR (1 Gy)-treated shXRN2 compared to shScr cells that were exposed to a-amanitin or GFP- or GFP-RNaseH transfection at the indicated times by IF. (*p<0.05).
To visualize 53BP1, XRN2, and γ-H2AX, cells were plated, grown to ˜70% confluency on glass coverslips and either mock- or IR-treated. […] Visualization was performed using a 100× oil objective lens with fluorescence on a Nikon microscope. For each experiment 100 cells were counted.
Since the loss of XRN2 sensitized cells to IR treatment (FIG. 12A), the inventors examined the effects of IR on R-loop formation in shXRN2 cells. Because R-loops can directly lead to DSBs, they examined whether active transcription or R-loop formation directly affected DNA repair (regression of 53BP1 foci) after IR treatment. shScr or shXRN2 cells were treated or not with a-amanitin or transfected with GFP- or GFP-RNaseH expression plasmids prior to IR exposure and 53BP1 foci/nuclei regression kinetics were assessed at various times after IR exposure.

[3] = tested on: XRN2 deficient cells, fibroblast or MDA-MB-231 cells; experiment: Colony forming ability assay in shScr versus shXRN2 cells after genomic insult; assay type: cell-based, human; settings: FIGS. 12E-F
Description: (FIGS. 12A-D) shScr versus shXRN2 cells (as indicated in the graph) or cells exposed to si-control (siSCR) versus XRN2 specific siRNA (siXRN2) were either mock-treated or exposed to: (FIGS. 12A-B) ionizing radiation (IR); (FIGS. 12C-D) ultraviolet light (UV). (FIGS. 12E-F) shScr and shXRN2, were either mock-treated or exposed to: (FIG. 12E) H2O2 or (FIG. 12F) Aphidicolin (APH). Cells were then monitored for survival using colony forming ability assays. Colonies of >50 normal-appearing cells were quantified for mock-versus agent-exposed cells. (**p<0.01).
shScr and shXRN2 cells were plated onto 60 mm tissue culture plates and allowed to grow for two days. Cells were then exposed to IR and UV (at various doses as indicated), allowed to grow for 7 days, washed with PBS and stained with crystal violet solution. Colonies with >50 normal appearing cells were counted and percent survival calculated and graphed with dose.

[4] = tested on: advanced pancreatic cancer; settings: people with advanced pancreatic cancer; cited from earlier work

Compound: O=C1NCCc2c(OCCCCN3CCCCC3)cccc21 [DPQ]
- effect of PARP activity inhibition on survival in colony forming assays with loss of XRN2 [1]: synthetic lethal

Compound: a-amanitin
- R-loop levels in shXRN2 cells ([2]; after a-amanitin treatment, FIG. 24C): decrease in R-loop levels
- 53BP1 foci in shXRN2 cells ([2]; inhibition of transcription, to levels comparable to shScr cells, FIGS. 24A-B): decreased 53BP1 foci
- XRN2 and R loop foci formation after UV treatment (fibroblast cells): failed to form
- DNA repair kinetics (regression of 53BP1 foci) after IR exposure in shXRN2 cells (shXRN2 cells): completely restored DNA repair kinetics

Compound: C[C@@]1(CO)[C@H](O)CC[C@@]2(C)[C@H]1CC[C@H]1C[C@@H]3C[C@@]12CC[C@]3(O)CO [aphidicolin]
- sensitivity of XRN2 deficient cells (colony forming ability after exposure) [3]: hypersensitive

Compound: OO [hydrogen peroxide]
- sensitivity of XRN2 deficient cells (colony forming ability after exposure) [3]: hypersensitive

Compound: Nc1ccn([C@@H]2O[C@H](CO)[C@@H](O)C2(F)F)c(=O)n1 [Gemcitabine]
- improvement in median survival duration [4]: 5 week
